Values quoted from earlier work, collected in patent publication US7851459B2, “Methods for diluting water-stabilized antimicrobial organosilane compositions” (Vitec Speciality Chemicals Limited, priority 2007, dated 2010).

Settings: mixture of organosilane and water

Structure (SMILES): CCCCCCCCCCCCCCCCCC[N+](C)(C)CCC[Si](OC)(OC)OC.[Cl-] [3-(trimethoxysilyl)propyl-dimethyloctadecyl ammonium chloride]
- time until mixture with water begins to lose effectiveness: four to eight
